Values of other authors as cited in patent publication US6689455B2, “Method of producing hexagonal ferrite and magnetic recording medium using said hexagonal ferrite” (Fuji Photo Film Co., Ltd., priority 2001, dated 2004).

Conditions: for Organic matter pKa value: organic matter used to treat the ferrite powder, Tables 1 and 2; for pKa: value in parentheses after the compound name, acetic acid: 2 mol/l aqueous solution; for pKa1: first dissociation of dicarboxylic acids

| pKa1 | Compound | Organic matter pKa value | pKa |
| --- | --- | --- | --- |
|  | O=P(O)(O)Oc1ccccc1 [phenoxyphosphonic acid] | 2.0 | 1.95 |
|  | O=S(=O)(O)c1ccccc1 [benzenesulfonic acid] |  | 2.55 |
|  | O=C(NO)c1ccccc1 [benzohydroxamic acid] |  | 2.3 |
| 2.75 | O=C(O)c1ccccc1C(=O)O [phthalic acid] |  |  |
|  | O=P([O-])([O-])CN(CCN(CCN(CP(=O)([O-])[O-])CP(=O)([O-])O)CP(=O)([O-])O)CP(=O)([O-])O.[Na+].[Na+].[Na+].[Na+].[Na+].[Na+].[Na+] [heptasodium diethylenetriamine-pentamethylene phosphonate] | 1.8 |  |
|  | O=P(O)(O)c1ccccc1 [phenylphosphonic acid] | 1.8 | 1.8 |
|  | NS(=O)(=O)O [sulfaminic acid] |  | 1.65 |
| 3.54 | O=C(O)c1ccc(C(=O)O)cc1 [terephthalic acid] |  |  |
